The source of these data is patent publication US20260078120A1, “SUBSTITUTED PYRIDOPYRIMIDINONES” (MIRATI THERAPEUTICS, INC., priority 2022, published 2026).

The subject of test [1] is T47D (PI3Kα H1047R mutant) cells. The test can be described thus: CellTiter-Glo 2.0 luminescent cell viability assay, 72 hours, T47D cells. The conditions noted are these: Homo sapiens, T47D, 72 h, T47D (PI3Kα H1047R mutant) cells, CellTiter-Glo, approximately 72 hours; read-out: T47D (H1047R mutant) Viability IC50. Format: cell-based. In outline: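 Cells seeded at 1000 per well overnight were dosed with a 10-concentration, 1:4 series starting at 10 µM and incubated ~72 h at 37° C. Viability was read by CellTiter-Glo 2.0 luminescence after 30 min at room temperature. IC50 came from four-parameter fits of percent vehicle control.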
In general terms: Cellular ATP, detected with luciferase, serves as a proxy for viable cell number.

Test [2] relates to SKBR3 (PI3Kα wild type) cells. The experiment in a line: CellTiter-Glo 2.0 luminescent cell viability assay, 72 hours, SKBR3 cells. The test is classed as cell-based. The conditions noted are these: Homo sapiens, SK-BR-3, 72 h, SKBR3 (PI3Kα wild type) cells, CellTiter-Glo, approximately 72 hours; read-out: SKBR3 (WT) Viability IC50. In outline:
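Viability measured via CTG luminescence following roughly 72 hours of compound exposure at 37° C. Dosing used a 10 um starting concentration diluted 1:4 over 10 points; percent-of-vehicle data fitted with a variable-slope four-parameter model for IC50.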

As to `Cc1cc([C@@H](C)Nc2ccccc2C(=O)O)c2nc(N3CCC(F)(F)CC3)c(C)c(=O)n2c1` [Example 11-303, (R)-2-((1-(2-(4,4-difluoropiperidin-1-yl)-3,7-dimethyl-4-oxo-4H-pyrido [1,2-a]pyrimidin-9-yl)ethyl)amino)benzoic acid], the figures for the IC50 in test [1] and in test [2] were 0.114 µM and greater than 10 µM, respectively.

With `Cc1cc([C@@H](C)Nc2ccccc2C(=O)O)c2nc(N3Cc4ncsc4C3)c(C)c(=O)n2c1` [Example 11-304, (R)-2-((1-(2-(4,6-dihydro-5H-pyrrolo[3,4-d]thiazol-5-yl)-3,7-dimethyl-4-oxo-4H-pyrido[1,2-a]pyrimidin-9-yl)ethyl)amino)benzoic acid], the IC50 in test [1] was 0.197 µM; in test [2] it was greater than 10 µM.

In the case of `Cc1cc([C@@H](C)Nc2ccccc2C(=O)O)c2nc(N3CCc4sc(C)nc4C3)c(C#N)c(=O)n2c1` [Example 11-305, (R)-2-((1-(3-cyano-7-methyl-2-(2-methyl-6,7-dihydrothiazolo[4,5-c]pyridin-5(4H)-yl)-4-oxo-4H-pyrido[1,2-a]pyrimidin-9-yl)ethyl)amino)benzoic acid], the figures for the IC50 in test [1] and in test [2] were 0.501 µM and greater than 10 µM, respectively.

`Cc1cc([C@@H](C)Nc2ccccc2C(=O)O)c2nc(N3CCc4scnc4C3)c(C#N)c(=O)n2c1` [Example 11-306, (R)-2-((1-(3-cyano-2-(6,7-dihydrothiazolo[4,5-c]pyridin-5(4H)-yl)-7-methyl-4-oxo-4H-pyrido[1,2-a]pyrimidin-9-yl)ethyl)amino)benzoic acid]: the IC50 in test [1] was 0.557 µM; in test [2], greater than 10 µM.

On to `Cc1cc([C@@H](C)Nc2cccc(F)c2C(=O)O)c2nc(N3Cc4ccccc4C3)c(C#N)c(=O)n2c1` [Example 11-307, (R)-2-((1-(3-cyano-2-(isoindolin-2-yl)-7-methyl-4-oxo-4H-pyrido[1,2-a]pyrimidin-9-yl)ethyl)amino)-6-fluorobenzoic acid], for which the IC50 in test [1] is 0.379 µM; in test [2], greater than 10 µM.

As for `Cc1cc([C@@H](C)Nc2ccccc2C(=O)O)c2nc(NCC(C)C)c(C#N)c(=O)n2c1` [Example 11-308, (R)-2-((1-(3-cyano-2-(isobutylamino)-7-methyl-4-oxo-4H-pyrido[1,2-a]pyrimidin-9-yl)ethyl)amino)benzoic acid], the IC50 in test [1] was 0.121 µM; in test [2], greater than 10 µM.

For `Cc1cc([C@@H](C)Nc2ccccc2C(=O)O)c2nc(NCC(C)C)c(C)c(=O)n2c1` [Example 11-309, (R)-2-((1-(2-(isobutylamino)-3,7-dimethyl-4-oxo-4H-pyrido[1,2-a]pyrimidin-9-yl)ethyl)amino)benzoic acid], the IC50 in test [1] was 0.313 µM; in test [2], greater than 10 µM.

As to `Cc1cc([C@@H](C)Nc2ccc(C#N)cc2C(=O)O)c2nc(N3Cc4ccccc4C3)c(C)c(=O)n2c1` [Example 11-310, (R)-5-cyano-2-((1-(2-(isoindolin-2-yl)-3,7-dimethyl-4-oxo-4H-pyrido[1,2-a]pyrimidin-9-yl)ethyl)amino)benzoic acid], the IC50 in test [1] is 0.634 µM; in test [2], greater than 10 µM.

As for `Cc1cc([C@@H](C)Nc2ccccc2C(=O)O)c2nc(N3CCC(N(C)C)CC3)c(C)c(=O)n2c1` [Example 11-311, (R)-2-((1-(2-(4-(dimethylamino)piperidin-1-yl)-3,7-dimethyl-4-oxo-4H-pyrido[1,2-a]pyrimidin-9-yl)ethyl)amino)benzoic acid], the IC50 in test [1] was 3.97 µM; in test [2], greater than 10 µM.

As for `Cc1cc([C@@H](C)Nc2ccccc2C(=O)O)c2nc(N3CCC(O)CC3)c(C#N)c(=O)n2c1` [Example 11-312, (R)-2-((1-(3-cyano-2-(4-hydroxypiperidin-1-yl)-7-methyl-4-oxo-4H-pyrido[1,2-a]pyrimidin-9-yl)ethyl)amino)benzoic acid], the IC50 in test [1] is 5.08 µM; in test [2], greater than 10 µM.

In the case of `Cc1cc([C@@H](C)Nc2ccccc2C(=O)O)c2nc(N3CCC(N(C)C)CC3)c(C#N)c(=O)n2c1` [Example 11-313, (R)-2-((1-(3-cyano-2-(4-(dimethylamino)piperidin-1-yl)-7-methyl-4-oxo-4H-pyrido[1,2-a]pyrimidin-9-yl)ethyl)amino)benzoic acid], the IC50 in test [1] and in test [2] was greater than 10 µM in each case.

For `Cc1cc([C@@H](C)Nc2ccccc2C(=O)O)c2nc(N3CCC(C)CC3)c(C#N)c(=O)n2c1` [Example 11-314, (R)-2-((1-(3-cyano-7-methyl-2-(4-methylpiperidin-1-yl)-4-oxo-4H-pyrido[1,2-a]pyrimidin-9-yl)ethyl)amino)benzoic acid], the IC50 is 0.146 µM in test [1] and greater than 10 µM in test [2].

In the case of `Cc1cc(C(=O)NC2CCCCC2C(=O)O)c2nc(N3CCCCC3)c(C#N)c(=O)n2c1` (centres unmarked) [Example 11-315, 2-(3-cyano-7-methyl-4-oxo-2-(piperidin-1-yl)-4H-pyrido[1,2-a]pyrimidine-9-carboxamido)cyclohexane-1-carboxylic acid], the IC50 in test [1] and in test [2] was greater than 10 µM each time.

Turning to `Cc1cc(C(=O)NC2(CC(=O)O)CCC2)c2nc(N3CCCCC3)c(C#N)c(=O)n2c1` [Example 11-316, 2-(1-(3-cyano-7-methyl-4-oxo-2-(piperidin-1-yl)-4H-pyrido[1,2-a]pyrimidine-9-carboxamido)cyclobutyl)acetic acid], the IC50 in test [1] and in test [2] was greater than 10 µM throughout.

`Cc1cc([C@@H](C)NC(=O)C2(C(=O)O)CCC2)c2nc(N3CCCCC3)c(C#N)c(=O)n2c1` [Example 11-317, (R)-1-((1-(3-cyano-7-methyl-4-oxo-2-(piperidin-1-yl)-4H-pyrido[1,2-a]pyrimidin-9-yl)ethyl)carbamoyl)cyclobutane-1-carboxylic acid]: the IC50 in test [1] and in test [2] was greater than 10 µM throughout.

Take `Cc1cc([C@@H](C)Nc2ccccc2C(=O)O)c2nc(N3CCOCC3)c(C#N)c(=O)n2c1` [Example 11-318, (R)-2-((1-(3-cyano-7-methyl-2-morpholino-4-oxo-4H-pyrido[1,2-a]pyrimidin-9-yl)ethyl)amino)benzoic acid]: the IC50 was 0.274 µM in test [1] and greater than 10 µM in test [2].

Consider `Cc1cc([C@@H](C)Nc2ccccc2C(=O)O)c2nc(N3CCCCCC3)c(C#N)c(=O)n2c1` [Example 11-319, (R)-2-((1-(2-(azepan-1-yl)-3-cyano-7-methyl-4-oxo-4H-pyrido[1,2-a]pyrimidin-9-yl)ethyl)amino)benzoic acid], for which the IC50 in test [1] is 0.162 µM; in test [2], greater than 10 µM.

For `CCN(CC)c1nc2c([C@@H](C)Nc3ccccc3C(=O)O)cc(C)cn2c(=O)c1C#N` [Example 11-320, (R)-2-((1-(3-cyano-2-(diethylamino)-7-methyl-4-oxo-4H-pyrido[1,2-a]pyrimidin-9-yl)ethyl)amino)benzoic acid], the IC50 in test [1] is 0.539 µM; in test [2], greater than 10 µM.

Turning to `Cc1cc([C@@H](C)Nc2ccccc2C(=O)O)c2nc(N3CC4(COC4)C3)c(C#N)c(=O)n2c1` [Example 11-321, (R)-2-((1-(3-cyano-7-methyl-4-oxo-2-(2-oxa-6-azaspiro[3.3]heptan-6-yl)-4H-pyrido[1,2-a]pyrimidin-9-yl)ethyl)amino)benzoic acid], the results for the IC50 in test [1] and in test [2] were 2.8 µM and greater than 10 µM, respectively.

Turning to `Cc1cc([C@@H](C)Nc2ccccc2C(=O)O)c2nc(N3CC4CC(C3)O4)c(C#N)c(=O)n2c1` [Example 11-322, 2-(((1R)-1-(2-(6-oxa-3-azabicyclo[3.1.1]heptan-3-yl)-3-cyano-7-methyl-4-oxo-4H-pyrido[1,2-a]pyrimidin-9-yl)ethyl)amino)benzoic acid], the 50% inhibitory concentration (IC50) in test [1] is 0.711 µM; in test [2], greater than 10 µM.

With `Cc1cc([C@@H](C)Nc2ccccc2C(=O)O)c2nc(N3CC4(CCC4)C3)c(C#N)c(=O)n2c1` [Example 11-323, (R)-2-((1-(3-cyano-7-methyl-4-oxo-2-(azaspiro[3.3]heptan-2-yl)-4H-pyrido[1,2-a]pyrimidin-9-yl)ethyl)amino)benzoic acid], the IC50 in test [1] was 0.156 µM; in test [2] it was greater than 10 µM.

For the molecule `Cc1cc([C@@H](C)Nc2ccccc2C(=O)O)c2nc(N3CCCC(O)C3)c(C#N)c(=O)n2c1` (stereo partly drawn) [Example 11-324, 2-(((1R)-1-(3-cyano-2-(3-hydroxypiperidin-1-yl)-7-methyl-4-oxo-4H-pyrido[1,2-a]pyrimidin-9-yl)ethyl)amino)benzoic acid], the figures for the IC50 in test [1] and in test [2] were 3.82 µM and greater than 10 µM, respectively.

Turning to `Cc1cc([C@@H](C)Nc2cnc(Cl)nc2C(=O)O)c2nc(N3Cc4ccccc4C3)c(C#N)c(=O)n2c1` [Example 11-325, (R)-2-chloro-5-((1-(3-cyano-2-(isoindolin-2-yl)-7-methyl-4-oxo-4H-pyrido[1,2-a]pyrimidin-9-yl)ethyl)amino)pyrimidine-4-carboxylic acid], the IC50 in test [1] is 3.08 µM; in test [2] it was greater than 10 µM.

For `C[C@@H](Nc1ccccc1C(=O)O)c1cc(C2CC2)cn2c(=O)c(C#N)c(N3Cc4ccccc4C3)nc12` [Example 11-326, (R)-2-((1-(3-cyano-7-cyclopropyl-2-(isoindolin-2-yl)-4-oxo-4H-pyrido[1,2-a]pyrimidin-9-yl)ethyl)amino)benzoic acid], the IC50 in test [1] came to 2.58 µM; in test [2] it was 3.96 µM.

`C[C@H](Nc1ccccc1C(=O)O)c1cc(C2CC2)cn2c(=O)c(C#N)c(N3Cc4ccccc4C3)nc12` [Example 11-327, (S)-2-((1-(3-cyano-7-cyclopropyl-2-(isoindolin-2-yl)-4-oxo-4H-pyrido[1,2-a]pyrimidin-9-yl)ethyl)amino)benzoic acid]: the results for the IC50 in test [1] and in test [2] were 0.143 µM and 9.93 µM, respectively.

In general, IC50 refers to the concentration at which inhibition is half-maximal.
